# US20180153995A1, “USE OF ANTIMICROBIAL POLYMERS FOR RE-SENSITIZATION OF MICROORGANISMS UPON EMERGENCE OF RESISTANCE TO ANTI-MICROBIAL AGENTS” (Technion Research & Development Foundation Limited, priority 2008, published 2018)
# Values joined by “and” are separate entries in the source; they are usually repeats but may differ in a detail not shown here. Equal values may be shown once. Read-outs that look alike come from different tables or passages of the source.
# Legend:
# S. maltophila 748 = assay: Antibiotic MIC by microdilution with or without sub-MIC polymer; format: cell-based, Stenotrophomonas maltophila
# S. aureus 43300 [1] = assay: as above; format: cell-based, Staphylococcus aureus
# S. aureus 43300 [2] = assay: as above; format: cell-based, Staphylococcus aureus; remark: listed apart in the source
# E. coli 16327 = assay: microbe, parasite or virus in culture
# [3] = system: E. coli K-12 efflux knockout mutant; format: cell-based, Escherichia coli; conditions: E. coli AG100A (efflux−)
# Procedure, shortened: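 Broth microdilution, inocula 10^5 bacteria/ml, 24 h at 37 °C. Growth read as OD620 against calibration standards.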
# [4] = system: E. coli K-12 resistant wild type; format: cell-based, Escherichia coli; conditions: E. coli AG100 (w.t.)
# S. aureus 15819 = assay: Antibiotic MIC by microdilution with or without sub-MIC polymer; format: cell-based, Staphylococcus aureus; conditions: S. aureus 15819
# E. coli 14384 = assay: as above; format: cell-based, Escherichia coli
# Procedure, shortened: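 OD 620 nm after 24 h at 37° C gave the inhibition of proliferation. Bacteria at 10^5 per ml were exposed to 2-fold serial antibiotic dilutions, with or without […].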
# E. coli 14182 = assay: as above; format: cell-based, Escherichia coli
# MRSA 15903 = assay: microbe, parasite or virus in culture; format: cell-based, Staphylococcus aureus
# Procedure, shortened: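 Values are FIC indexes, summing each agent's MIC in combination divided by its MIC alone, for MRSA 15903. Interpretation: <0.5 clear re-sensitization, 0.5 to 4 marginal or none, >4 antagonistic.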
# [5] = +½ MIC (3.12 μM) C12K(KNC12K)3NH2
# [6] = +⅓ MIC (2.1 μM) C12K(KNC12K)3NH2
# [7] = +½ MIC (3.12 μM) C12(5-ene)KKNC12KNH2
# [8] = +¼ MIC (1.6 μM) C12(5-ene)KKNC12KNH2
# [9] = +⅓ MIC (2.1 μM) C12(5-ene)KKNC12KNH2
# [10] = polymer at ¼ of its MIC (Table 16)
# [11] = polymer at ½ of its MIC (Table 16)
# [12] = polymer at ⅓ of its MIC (Table 16)
# [13] = the OAK at ¼ of its MIC (Table 17)
# [14] = the OAK at ½ of its MIC (Table 17)
# [15] = the OAK at ⅓ of its MIC (Table 17)
compound,measurement,setting,value
"CCN1CCN(C(=O)N[C@@H](C(=O)N[C@@H]2C(=O)N3[C@@H]2SC(C)(C)[C@@H]3C(=O)O)c2ccccc2)C(=O)C1=O [Piperacillin, piperacillin]",Antibiotic MIC,S. maltophila 748; +¼ MIC (1.6 μM) C12K(KNC12K)3NH2,32 µg/mL
same,Antibiotic MIC,S. maltophila 748; [5],32 µg/mL
same,Antibiotic MIC,S. maltophila 748; [6],32 µg/mL
same,Antibiotic MIC,"S. maltophila 748; no polymer (None), Table 13",32 µg/mL
same,Antibiotic MIC,S. aureus 43300 [1]; +¼ MIC (1.6 μM) C14(9-ene)KKNC12KNH2,16 µg/mL
same,Antibiotic MIC,S. aureus 43300 [1]; [7],1 µg/mL
same,Antibiotic MIC,S. aureus 43300 [1]; +½ MIC (3.12 μM) C14(9-ene)KKNC12KNH2,16 µg/mL
same,Antibiotic MIC,S. aureus 43300 [1]; +⅓ MIC (2.1 μM) C14(9-ene)KKNC12KNH2,16 µg/mL
same,Antibiotic MIC,"S. aureus 43300 [1]; no polymer (None), Table 8",16 µg/mL
same,Antibiotic MIC,"S. aureus 43300 [1]; no polymer (None), Table 9",16 µg/mL
same,Antibiotic MIC,"S. aureus 43300 [1]; no polymer (None), Table 10",16 µg/mL
same,Antibiotic MIC,"S. aureus 43300 [1]; no polymer (None), Table 11",32 µg/mL
same,Antibiotic MIC,"S. aureus 43300 [1]; no polymer (None), Table 12",32 µg/mL
same,Antibiotic MIC,S. aureus 43300 [2]; [8],4 µg/mL
same,Antibiotic MIC,S. aureus 43300 [2]; +¼ MIC (1.6 μM) C12K(KNC12K)2NH2,32 µg/mL
same,Antibiotic MIC,S. aureus 43300 [2]; +¼ MIC (1.6 μM) C12KKNC12KNH2,32 µg/mL
same,Antibiotic MIC,S. aureus 43300 [2]; +¼ MIC (1.6 μM) C16(9-ene)KKNC12KNH2,4 µg/mL
same,Antibiotic MIC,S. aureus 43300 [2]; +½ MIC (3.12 μM) C12KKNC12KNH2,8 µg/mL
same,Antibiotic MIC,S. aureus 43300 [2]; +½ MIC (3.12 μM) C16(9-ene)KKNC12KNH2,2 µg/mL
same,Antibiotic MIC,S. aureus 43300 [2]; [9],4 µg/mL
same,Antibiotic MIC,S. aureus 43300 [2]; +⅓ MIC (2.1 μM) C12K(KNC12K)2NH2,32 µg/mL
same,Antibiotic MIC,S. aureus 43300 [2]; +⅓ MIC (2.1 μM) C12KKNC12KNH2,16 µg/mL
same,Antibiotic MIC,S. aureus 43300 [2]; +⅓ MIC (2.1 μM) C16(9-ene)KKNC12KNH2,4 µg/mL
same,Antibiotic MIC,E. coli 16327,128 µg/mL and 256 µg/mL
same,Antibiotic MIC,"E. coli 16327; E. coli 16327, +¼ MIC (1.6 μM) C12K(KNC12K)2NH2",256 µg/mL
same,Antibiotic MIC,"E. coli 16327; E. coli 16327, +½ MIC (3.12 μM) C12K(KNC12K)2NH2",64 µg/mL
same,Antibiotic MIC,"E. coli 16327; E. coli 16327, +⅓ MIC (2.1 μM) C12K(KNC12K)2NH2",256 µg/mL
same,Antibiotic MIC,"E. coli 16327; E. coli 16327, no polymer (None), Table 9",256 µg/mL
same,Antibiotic MIC,"E. coli 16327; E. coli 16327, no polymer (None), Table 10",512 µg/mL
same,Antibiotic MIC,"E. coli 16327; E. coli 16327, no polymer (None), Table 12",256 µg/mL
same,"Antibiotic MIC, None","E. coli 16327; E. coli U-16327, antibiotic alone (Table 15)",256 µg/mL
same,"Antibiotic MIC in presence of C12K(NC8K)7NH2 (SEQ ID NO: 4), +¼ MIC","E. coli 16327; E. coli U-16327, polymer at ¼ of its MIC",256 µg/mL
same,"Antibiotic MIC in presence of C12K(NC8K)7NH2 (SEQ ID NO: 4), +½ MIC","E. coli 16327; E. coli U-16327, polymer at ½ of its MIC",32 to 64 µg/mL
same,"Antibiotic MIC in presence of C12K(NC8K)7NH2 (SEQ ID NO: 4), +⅓ MIC","E. coli 16327; E. coli U-16327, polymer at ⅓ of its MIC",128 to 256 µg/mL
same,"Antibiotic MIC, None",[3]; antibiotic alone (Table 16),<0.13 µg/mL
same,"Antibiotic MIC, None",[3]; antibiotic alone (Table 17),<0.13 µg/mL
same,"Antibiotic MIC in presence of C12K(NC8K)7NH2 (SEQ ID NO: 4), +¼ MIC",[3]; [10],<0.13 µg/mL
same,"Antibiotic MIC in presence of C12K(NC8K)7NH2 (SEQ ID NO: 4), +½ MIC",[3]; [11],<0.13 µg/mL
same,"Antibiotic MIC in presence of C12K(NC8K)7NH2 (SEQ ID NO: 4), +⅓ MIC",[3]; [12],<0.13 µg/mL
same,"Antibiotic MIC in presence of the OAK, +¼ MIC",[3]; [13],<0.13 µg/mL
same,"Antibiotic MIC in presence of the OAK, +½ MIC",[3]; [14],<0.13 µg/mL
same,"Antibiotic MIC in presence of the OAK, +⅓ MIC",[3]; [15],<0.13 µg/mL
same,"Antibiotic MIC, None",[4]; antibiotic alone (Table 16),2 µg/mL
same,"Antibiotic MIC, None",[4]; antibiotic alone (Table 17),2 µg/mL
same,"Antibiotic MIC in presence of C12K(NC8K)7NH2 (SEQ ID NO: 4), +¼ MIC",[4]; [10],2 µg/mL
same,"Antibiotic MIC in presence of C12K(NC8K)7NH2 (SEQ ID NO: 4), +½ MIC",[4]; [11],0.5 µg/mL
same,"Antibiotic MIC in presence of C12K(NC8K)7NH2 (SEQ ID NO: 4), +⅓ MIC",[4]; [12],1 µg/mL
same,"Antibiotic MIC in presence of the OAK, +¼ MIC",[4]; [13],1 to 2 µg/mL
same,"Antibiotic MIC in presence of the OAK, +½ MIC",[4]; [14],0.5 µg/mL
same,"Antibiotic MIC in presence of the OAK, +⅓ MIC",[4]; [15],1 µg/mL
same,Antibiotic MIC,S. aureus 15819; [8],8 to 16 µg/mL
same,Antibiotic MIC,S. aureus 15819; +¼ MIC (1.6 μM) C12KKNC12KNH2,16 µg/mL
same,Antibiotic MIC,S. aureus 15819; [7],4 µg/mL
same,Antibiotic MIC,S. aureus 15819; [5],4 µg/mL
same,Antibiotic MIC,S. aureus 15819; +½ MIC (3.12 μM) C12KKNC12KNH2,4 µg/mL
same,Antibiotic MIC,S. aureus 15819; [9],8 µg/mL
same,Antibiotic MIC,S. aureus 15819; [6],4 µg/mL
same,Antibiotic MIC,S. aureus 15819; +⅓ MIC (2.1 μM) C12KKNC12KNH2,8 to 16 µg/mL
same,Antibiotic MIC,"S. aureus 15819; no polymer (None), Table 8",16 µg/mL
same,Antibiotic MIC,"S. aureus 15819; no polymer (None), Table 11",32 µg/mL
same,Antibiotic MIC,"S. aureus 15819; no polymer (None), Table 13",32 µg/mL
same,Antibiotic MIC,E. coli 14384,256 µg/mL and 256 to 512 µg/mL
same,Antibiotic MIC,"E. coli 14384; E. coli 14384, +½ MIC C12K(NC8K)5NH2",256 to 512 µg/mL
same,"Antibiotic MIC, None","E. coli 14384; E. coli 14384, antibiotic alone (Table 15)",256 to 512 µg/mL
same,Antibiotic MIC,"E. coli 14384; E. coli 14384, no polymer (None), Table 9",256 to 512 µg/mL
same,Antibiotic MIC,"E. coli 14384; E. coli 14384, no polymer (None), Table 14",256 to 512 µg/mL
same,"Antibiotic MIC in presence of C12K(NC8K)7NH2 (SEQ ID NO: 4), +¼ MIC","E. coli 14384; E. coli 14384, polymer at ¼ of its MIC",256 to 512 µg/mL
same,"Antibiotic MIC in presence of C12K(NC8K)7NH2 (SEQ ID NO: 4), +½ MIC","E. coli 14384; E. coli 14384, polymer at ½ of its MIC",64 to 128 µg/mL
same,"Antibiotic MIC in presence of C12K(NC8K)7NH2 (SEQ ID NO: 4), +⅓ MIC","E. coli 14384; E. coli 14384, polymer at ⅓ of its MIC",256 to 512 µg/mL
same,Antibiotic MIC,E. coli 14182; +¼ MIC C12K(NC8K)5NH2,>512 µg/mL
same,Antibiotic MIC,E. coli 14182; +½ MIC C12K(NC8K)5NH2,512 µg/mL
same,Antibiotic MIC,E. coli 14182; +⅓ MIC C12K(NC8K)5NH2,>512 µg/mL
same,"Antibiotic MIC, None",E. coli 14182; antibiotic alone (Table 15),>512 µg/mL
same,Antibiotic MIC,"E. coli 14182; no polymer (None), Table 14",>512 µg/mL
same,"Antibiotic MIC in presence of C12K(NC8K)7NH2 (SEQ ID NO: 4), +¼ MIC",E. coli 14182; polymer at ¼ of its MIC,>512 µg/mL
same,"Antibiotic MIC in presence of C12K(NC8K)7NH2 (SEQ ID NO: 4), +½ MIC",E. coli 14182; polymer at ½ of its MIC,64 µg/mL
same,"Antibiotic MIC in presence of C12K(NC8K)7NH2 (SEQ ID NO: 4), +⅓ MIC",E. coli 14182; polymer at ⅓ of its MIC,>512 µg/mL
same,MIC,"MRSA 15903; MRSA 15903, +¼ polymer MIC (1.6 μM) NC12(KNC12K)2NH2",64 µg/mL
same,MIC,"MRSA 15903; MRSA 15903, +½ polymer MIC (3.1 μM) NC12(KNC12K)2NH2",1 µg/mL
same,MIC,"MRSA 15903; MRSA 15903, +⅓ polymer MIC (2.1 μM) NC12(KNC12K)2NH2",4 µg/mL
same,MIC,"MRSA 15903; S. aureus CI-15903, +polymer (¼ MIC) C12(5-ene)KKNC12KNH2",32 µg/mL
same,MIC,"MRSA 15903; S. aureus CI-15903, +polymer (½ MIC) C12(5-ene)KKNC12KNH2",0.25 µg/mL
same,MIC,"MRSA 15903; S. aureus CI-15903, +polymer (⅓ MIC) C12(5-ene)KKNC12KNH2",4 µg/mL
same,MIC,"MRSA 15903; S. aureus CI-15903, alone",256 µg/mL
same,MIC,"MRSA 15903; Staphylococcus aureus, MRSA, 24 h",256 µg/mL
